For 26 molecules, IC50 results are on record in US20260166039A1 (SCHRÖDINGER, INC., priority 2022, published 2026).

Where two headings read alike, the source gives them in different places.

In assay [1] the test system is phosphorylation of Cdc2 Y15 (Wee1 substrate) in A427 cells. The experiment in a line: Phosphorylated Cdc2 MSD Electrochemiluminescence Assay. Conditions: Homo sapiens. The format is cell-based. The procedure: Phosphorylated Cdc2 MSD Electrochemiluminescence Assay
The effect of Wee1 inhibitors on cellular phosphorylation of the Wee1 substrate Cdc2 was determined using the following protocol:
A total of 40,000 A427 cells in 100 uL culture medium (1640 medium+10% Fetal bovine serum+1% Penicillin-Streptomycin) were plated in 96-well cell culture plates. 3-fold serial dilutions of test compounds were prepared in completed PBS at 25× final concentration. After 20 hours, the plates were removed and 4 μL of each were added to the cells and incubated with shaking for 30 minutes at 37° C., 5% CO2. Each concentration was tested in duplicate. After a total 6 hours incubation, plates were removed and centrifuged for 5 minutes and 100 uL of supernatant from each well was removed. Cells were washed with 200 μL PBS and lysed with 50 μL MSD lysis buffer (Meso Scale Diagnostics) supplied with 1× complete ULTRA cocktail inhibitor (Roche).
To detect phosphorylation of Cdc2 Y15, 30 μL of capture antibody solution (CST catalog #9116S 1:200) was added into each well of the MSD plate (MSD catalog #L15XB-6), sealed and incubated at 4° C. with shaking (450 rpm) overnight. The antibody solution was removed, wells blocked with BSA solution and plates washed three times with PBST, followed by addition of 30 μl of cell lysate per well. After 2 hours of incubation, plates were washed three times with PBST. 30 μL of 1× detection antibody solution (CST catalog #4539S 1:200) was then added to each well and incubated for 1 hour. Plates were washed three times with PBST and 30 μL of 1× secondary antibody solution (MSD, catalog #:R32AB-1, 1:5000) was added to each well and incubated for 1 hour. Plates were washed three times with PBST and 150 μL of 1× Read Buffer T (MSD, catalog #R92TC-1) was added to each well of the MSD plate. The electrochemiluminescence signal was measured on a MESO SECTOR S600 plate reader. The percentage of remaining phosphorylated Cdc2 signal was calculated following the equation below.
[formula] • HC (high control): Cells treated with DMSO • Cpds: Cells treated with test compounds • LC (low control): Cells treated with positive control Wee1 inhibitor

Another assay deals with T1, Wee1 kinase domain (Homo sapiens, UniProt P30291).
T1 construct: Wee1 kinase domain was purchased from Carna (catalog #05-177); purchased Carna 05-177
T1 sequence (P30291 299-569 limits assumed): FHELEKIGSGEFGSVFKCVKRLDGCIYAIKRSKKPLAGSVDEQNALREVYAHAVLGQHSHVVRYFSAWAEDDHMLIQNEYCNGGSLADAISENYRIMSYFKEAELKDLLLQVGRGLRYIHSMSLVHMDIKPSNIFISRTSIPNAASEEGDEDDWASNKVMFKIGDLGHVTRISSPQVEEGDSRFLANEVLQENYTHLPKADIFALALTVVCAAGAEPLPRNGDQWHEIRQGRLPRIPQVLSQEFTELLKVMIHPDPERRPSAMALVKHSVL
Put plainly: Wee1 Kinase Biochemical Assay (ADP-Glo). As to conditions: 15 uM ATP. Put shortly: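 Compounds tested against 1 nM Wee1 kinase domain in Tris buffer containing 20 mM MgCl2, BSA and 2 mM DTT, with 15 uM ATP and poly(Lys,Tyr) substrate for 4 h at 25 °C. Luminescent ADP detection gave percent inhibition, normalized to DMSO and saturating inhibitor.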
(In general: In ADP-Glo the light output rises with the ADP produced.)

Where [2] appears, read: A-427, class symbols, read-out: A427 pCDC2 MSD IC50.
The mark [3] stands for this setting: class symbols, 1 nM Wee1 enzyme, 4 hours at 25° C.

A word on the IC50: it is the concentration that inhibits the measured activity by half. Regarding `CC1(C)C[C@H]2N(c3cccc(N4CCCC4=O)n3)c3nc(Nc4ccc([C@@H]5CCNC5)cc4)ncc3[C@@]2(C)CO1` [Example 632, 1-(6-((4bR,8aR)-4b,7,7-trimethyl-2-((4-((S)-pyrrolidin-3-yl)phenyl)amino)-4b,7,8,8a-tetrahydropyrano[3′,4′:4,5]pyrrolo[2,3-d]pyrimidin-9(5H)-yl)pyridin-2-yl)pyrrolidin-2-one], the half-maximal inhibitory concentration (IC50) in assay [1] (setting [2]) is 100 to 1000 nM; at Wee1 kinase domain (setting [3]), less than 10 nM.
Consider `CN[C@H](Cc1ccc(Nc2ncc3c(n2)N(c2cccc(N4C(=O)OC[C@@H]4C)n2)[C@@H]2CC(C)(C)OC[C@]32C)cc1)C(=O)O` (single isomer, unassigned) [Example 323], for which the IC50 in assay [1] (A-427, pCDC2 MSD) was 100 to 1000 nM; at Wee1 kinase domain (Wee1 kinase domain, ADP-Glo), less than 10 nM.
In the case of `CN1C[C@H]2C[C@@H]1CN2c1ccc(Nc2ncc3c(n2)N(c2cccc(N4CCOC4=O)n2)[C@@H]2CC(C)(C)OC[C@]32C)cc1F` [Example 668, 3-(6-((4bR,8aR)-2-((3-fluoro-4-((1R,4R)-5-methyl-2,5-diazabicyclo[2.2.1]heptan-2-yl)phenyl)amino)-4b,7,7-trimethyl-4b,7,8,8a-tetrahydropyrano[3′,4′:4,5]pyrrolo[2,3-d]pyrimidin-9(5H)-yl)pyridin-2-yl)oxazolidin-2-one], the IC50 in assay [1] (setting [2]) is 100 to 1000 nM; at Wee1 kinase domain (setting [3]), less than 10 nM.
The matching figures for `Cn1cc(Nc2ncc3c(n2)N(c2cccc(N=S(C)(C)=O)n2)[C@@H]2CC(C)(C)OC[C@]32C)cn1` (single isomer, unassigned) [Example 484]: less than 100 nM and less than 10 nM.
Take `C[C@H]1COC(=O)N1c1cccc(N2c3nc(Nc4ccc([C@@H]5CCN(C)C5)cc4)ncc3[C@@]3(C)COC(C)(C)C[C@@H]23)n1` (single isomer, unassigned) [Example 305]: the concentration for half-maximal inhibition (IC50) in assay [1] (A-427, pCDC2 MSD) was 100 to 1000 nM; on Wee1 kinase domain (Wee1 kinase domain, ADP-Glo), less than 10 nM.
Consider `CNCc1cccc(N2c3nc(Nc4ccc(N5CCOCC5)cc4)ncc3[C@@]3(C)COC(C)(C)C[C@@H]23)n1` (single isomer, unassigned) [Example 5], for which the IC50 in assay [1] (A-427, pCDC2 MSD) is 100 to 1000 nM; against Wee1 kinase domain (Wee1 kinase domain, ADP-Glo), less than 10 nM.
Take `CNC(=O)c1ccc(Nc2ncc3c(n2)N(c2cccc(N=S(C)(C)=O)n2)[C@@H]2CC(C)(C)OC[C@]32C)cc1F` [Example 119, 4-(((4bR,8aR)-9-(6-((dimethyl(oxo)-16-sulfaneylidene)amino)pyridin-2-yl)-4b,7,7-trimethyl-4b,5,7,8,8a,9-hexahydropyrano[3′,4′:4,5]pyrrolo[2,3-d]pyrimidin-2-yl)amino)-2-fluoro-N-methylbenzamide]: the IC50 is 100 to 1000 nM in assay [1] (A-427, pCDC2 MSD) and less than 10 nM on Wee1 kinase domain (Wee1 kinase domain, ADP-Glo).
With `C[C@H]1COC(=O)N1c1cccc(N2c3nc(Nc4ccc([C@H]5CCNC5)cc4)ncc3[C@@]3(C)COC(C)(C)C[C@@H]23)n1` (single isomer, unassigned) [Example 279], the IC50 in assay [1] (A-427, pCDC2 MSD) is 100 to 1000 nM; at Wee1 kinase domain (Wee1 kinase domain, ADP-Glo) it was less than 10 nM.
`CN1CCC(n2cc(Nc3ncc4c(n3)N(c3cccc(C(C)(C)O)n3)[C@@H]3CC(C)(C)OC[C@]43C)cn2)CC1` (single isomer, unassigned) [Example 11]: the IC50 is 100 to 1000 nM in assay [1] (A-427, pCDC2 MSD) and less than 10 nM against Wee1 kinase domain (Wee1 kinase domain, ADP-Glo).
Regarding `CN1CC[C@H]2CN(c3ccc(Nc4ncc5c(n4)N(c4cccc(N6CCOC6=O)n4)[C@@H]4CC(C)(C)OC[C@]54C)cc3)C[C@H]21` [Example 684, 3-(6-((4bR,8aR)-4b,7,7-trimethyl-2-((4-((3aS,6aS)-1-methylhexahydropyrrolo[3,4-b]pyrrol-5(1H)-yl)phenyl)amino)-4b,7,8,8a-tetrahydropyrano[3′,4′:4,5]pyrrolo[2,3-d]pyrimidin-9(5H)-yl)pyridin-2-yl)oxazolidin-2-one], the IC50 is 100 to 1000 nM in assay [1] (setting [2]) and less than 10 nM on Wee1 kinase domain (setting [3]).
On to `CNCc1cccc(N2c3nc(Nc4ccc(C(C)(C)C)cc4)ncc3[C@@]3(C)COC(C)(C)C[C@@H]23)n1` (single isomer, unassigned) [Example 73], for which the IC50 was 100 to 1000 nM in assay [1] (A-427, pCDC2 MSD) and less than 10 nM against Wee1 kinase domain (Wee1 kinase domain, ADP-Glo).
For `CN[C@@H](Cc1ccc(Nc2ncc3c(n2)N(c2cccc(N4C(=O)OC[C@@H]4C)n2)[C@@H]2CC(C)(C)OC[C@]32C)cc1)C(=O)O` (single isomer, unassigned) [Example 321], the IC50 was 100 to 1000 nM in assay [1] (A-427, pCDC2 MSD) and less than 10 nM on Wee1 kinase domain (Wee1 kinase domain, ADP-Glo).
Take `CN1CCC(c2ccc(Nc3ncc4c(n3)N(c3cccc(N5CCOC5=O)n3)[C@@H]3CC(C)(C)OC[C@]43C)cc2)CC1` (single isomer, unassigned) [Example 591]: the figures for the IC50 (in assay [1] (setting [2]); against Wee1 kinase domain (setting [3])) were 100 to 1000 nM and less than 10 nM, respectively.
With `CN1C[C@@H]2C[C@H]1CN2c1ccc(Nc2ncc3c(n2)N(c2cccc(N4CCCC4=O)n2)[C@@H]2CC(C)(C)OC[C@]32C)cc1` [Example 629, 1-(6-((4bR,8aR)-4b,7,7-trimethyl-2-((4-((1S,4S)-5-methyl-2,5-diazabicyclo[2.2.1]heptan-2-yl)phenyl)amino)-4b,7,8,8a-tetrahydropyrano[3′,4′:4,5]pyrrolo[2,3-d]pyrimidin-9(5H)-yl)pyridin-2-yl)pyrrolidin-2-one], the half-maximal inhibitory concentration (IC50) was 100 to 1000 nM in assay [1] (setting [2]) and less than 10 nM at Wee1 kinase domain (setting [3]).
Consider `C[C@H]1COC(=O)N1c1cccc(N2c3nc(Nc4ccc(O[C@@H]5CCNC5)nc4)ncc3[C@@]3(C)COC(C)(C)C[C@@H]23)n1` (single isomer, unassigned) [Example 287], for which the IC50 in assay [1] (A-427, pCDC2 MSD) is 100 to 1000 nM; against Wee1 kinase domain (Wee1 kinase domain, ADP-Glo) it was less than 10 nM.
On to `CN[C@H](C)c1cccc(N2c3nc(Nc4ccn(C5CCOCC5)c(=O)c4)ncc3[C@@]3(C)COC(C)(C)C[C@@H]23)n1` (single isomer, unassigned) [Example 391], for which the IC50 was 100 to 1000 nM in assay [1] (A-427, pCDC2 MSD) and less than 10 nM against Wee1 kinase domain (Wee1 kinase domain, ADP-Glo).
Take `CC1(C)C[C@H]2N(c3cccc(N=S(C)(C)=O)n3)c3nc(Nc4cnn(C(F)(F)F)c4)ncc3[C@@]2(C)CO1` (single isomer, unassigned) [Example 488]: the IC50 is 100 to 1000 nM in assay [1] (setting [2]) and less than 10 nM against Wee1 kinase domain (setting [3]).
Take `Cn1cc(Nc2ncc3c(n2)N(c2cccc(N=S(C)(C)=O)n2)[C@@H]2CC(C)(C)OC[C@]32C)ccc1=O` (single isomer, unassigned) [Example 495]: the values for the IC50 (in assay [1] (setting [2]); against Wee1 kinase domain (setting [3])) were 1000 to 10000 nM and less than 10 nM, respectively.
As for `CN1CCc2ccc(Nc3ncc4c(n3)N(c3cccc(N=S(C)(C)=O)n3)[C@@H]3CC(C)(C)OC[C@]43C)cc2C1` (single isomer, unassigned) [Example 109], the IC50 in assay [1] (A-427, pCDC2 MSD) is less than 100 nM; against Wee1 kinase domain (Wee1 kinase domain, ADP-Glo) it was less than 10 nM.
`CNCc1cccc(N2c3nc(Nc4ccn([C@@H]5CCOC5)c(=O)c4)ncc3[C@@]3(C)COC(C)(C)C[C@@H]23)n1` (single isomer, unassigned) [Example 388]: the IC50 in assay [1] (A-427, pCDC2 MSD) is 100 to 1000 nM; against Wee1 kinase domain (Wee1 kinase domain, ADP-Glo), less than 10 nM.
`CN[C@@H](C)c1cccc(N2c3nc(Nc4ccc(N5C[C@@H]6C[C@H]5CO6)cc4)ncc3[C@@]3(C)COC(C)(C)C[C@@H]23)n1` (single isomer, unassigned) [Example 581]: the half-maximal inhibitory concentration (IC50) is 100 to 1000 nM in assay [1] (setting [2]) and less than 10 nM against Wee1 kinase domain (setting [3]).
For `CN1[C@@H]2C[C@H]1CN(c1ccc(Nc3ncc4c(n3)N(c3cccc(C(C)(C)O)n3)[C@@H]3CC(C)(C)OC[C@]43C)cc1)C2` (single isomer, unassigned) [Example 441], the half-maximal inhibitory concentration (IC50) in assay [1] (setting [2]) was 100 to 1000 nM; on Wee1 kinase domain (setting [3]), less than 10 nM.
Regarding `Cn1cc([C@@H]2C[C@H]2C(=O)Nc2ncc3c(n2)N(c2cccc(N=S(C)(C)=O)n2)[C@@H]2CC(C)(C)OC[C@]32C)cn1` (single isomer, unassigned) [Example 403], the IC50 was 100 to 1000 nM in assay [1] (setting [2]) and less than 10 nM against Wee1 kinase domain (setting [3]).
`C[C@H]1CCC(=O)N1c1cccc(N2c3nc(Nc4ccc(N5CC6(CN(C)C6)C5)cc4)ncc3[C@@]3(C)COCC[C@@H]23)n1` (single isomer, unassigned) [Example 776]: the values for the half-inhibitory concentration (IC50) (in assay [1] (setting [2]); against Wee1 kinase domain (setting [3])) were 100 to 1000 nM and less than 10 nM, respectively.
As for `CN1CCN(c2ccc(Nc3ncc4c(n3)N(c3cccc(S(C)(=O)=O)n3)[C@@H]3CC(C)(C)OC[C@]43C)cc2)CC1` (single isomer, unassigned) [Example 749], the half-maximal inhibitory concentration (IC50) in assay [1] (setting [2]) is 100 to 1000 nM; against Wee1 kinase domain (setting [3]), less than 10 nM.
In the case of `CN1CC[C@H](n2ccc(Nc3ncc4c(n3)N(c3cccc(N=S(C)(C)=O)n3)[C@@H]3CC(C)(C)OC[C@]43C)n2)C1` (single isomer, unassigned) [Example 225], the concentration for half-maximal inhibition (IC50) in assay [1] (A-427, pCDC2 MSD) was 1000 to 10000 nM; on Wee1 kinase domain (Wee1 kinase domain, ADP-Glo), less than 10 nM.
